Source: US5608095A, “Alkyl-4-silyl-phenols and esters thereof as antiatherosclerotic agents” (Hoechst Marion Roussel, Inc., priority 1996, dated 1997)
Where two headings read alike, the source gives them in different places.

Legend:
oxidation of lipids = assay: Conjugated diene determination, rat serum; assay type: in vivo, male Sprague-Dawley rats; conditions: pooled rat serum, 4 days, mean of 2 determinations
Excerpt: A typical experiment consisted of 4-6 groups of rats (N=5 per group) with 1 group being a control which received no MDL compound and the other groups being treated with 0.3% MDL compound. Some of the compounds were either repeated at 0.3% or evaluated again at the lower dose of 0.1%. Male Sprague-Dawley rats, 50-100 g, (Harlan Laboratories, Indianapolis, Ind.) were housed in groups of 5, fed ad libitum water and Purina Rodent chow (#5002) with or without MDL compound as a dietary admixture for 4 days. Dietary admixtures (0.3%) were made by mixing 1.2 grams of an MDL compound with 400 grams of Purina rodent chow (#5002). The MDL compound was mixed with approximately 50 grams of food using a mortar and pestle. This was added to the remainder of the food and mixed for 3 hours on a rotary mixer. In the morning of day 5, non-fasted rats were anesthetized with carbon dioxide, and blood was collected by cardiac puncture. Rats were sacrificed by cervical dislocation. Body weights and liver weights were recorded in grams. Food consumption was recorded as grams.cndot.day^-1.cndot.rat^-1. Deaths were recorded as mortality. Aliquots of fresh serum were used for clinical chemistries, thiobarbituric acid reactive substances (TBARS) and conjugated diene measurements. Aliquots of serum (~0.5mL) and whole livers were frozen at -20° C. for compound and metabolite concentration determination at a later time.
Conjugated diene lag phase is another indicator of the oxidation of lipids. Lipids exposed to Cu^++ form conjugated dienes that absorb ultraviolet light in the range of 230 to 235 nm. The lag phase of diene formation gives an indication of the amount of oxidation of the lipids. A lag phase longer than control samples indicate inhibition of the oxidation. Conjugated diene lay phase was determined using a Varian DMS200 spectrophotometer (fitted with a constant temperature, 5 cuvette sample changer) at 30° C. Twenty (20) μL of pooled serum were added to cuvettes containing 3.0 mL phosphate buffered saline, pH 7.5, and mixed. The absorbances of all cuvettes were measured, and the instrument baseline was set to zero using the lowest absorbing sample. Next, 100 μL of 1 mmol CuSO4 were added and immediately mixed. The absorbance of each cuvette was recorded at 2 min intervals for a period of 840 min. The data were captured and transferred to a Microsoft EXCEL® spreadsheet where the curves were smoothed and differentials obtained. Lag times were determined mathematically as minutes. Serum samples were pooled (N=5); data presented are the mean values of 2 determinations. Serum samples from treated rats were compared to serum samples from control rats that received no MDL compound.

[1] = Food consumption, body and liver weight in cholesterol-fed rabbits; assay type: in vivo, female New Zealand White rabbits; conditions: for body wt., percent of control / lw/bw (liver weight/body weight), percent of control: rabbit
Procedure, shortened: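 Female New Zealand White rabbits fed 100 g/day of 0.2% cholesterol chow sprayed with compound (mostly 0.4%; some at 0.26% or 0.6%) from ethanol or diethyl ether:ethanol 3:2, for 7 days (14 days at 0.6%). Daily food intake, terminal body and liver weights recorded in grams.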

[2] = HPLC quantitation of compound and metabolite concentration in rabbit serum and liver; assay type: in vivo, female New Zealand White rabbits; conditions: for concentration at 168 h: po
Procedure, shortened: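 Female New Zealand White rabbits fed 0.2% cholesterol chow with 0.4% compound (some at 0.26% or 0.6%) for 7 days (14 days at 0.6%), fasted overnight before sampling. Serum and liver extracts run by reverse-phase C18 HPLC, absorbance 240/254/420 nm, for parent, bisphenol and diphenoquinone; recovery-corrected, detection limit ~0.5 μg/mL.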

[3] = rabbit liver, diet 0.4%, 7 days
[4] = rabbit serum, diet 0.4%, 7 days
[5] = rabbit liver, diet 0.4%, 7 days, read-out: Liver Parent = parent compound concentration
[6] = rabbit serum, diet 0.4%, 7 days, read-out: Serum Parent = parent compound concentration

CC(C)(C)c1cc(OC[Si](C)(C)c2ccccc2)ccc1O [MDL 103,491, 2-t-Butyl-4-[(dimethylphenylsilyl)methyloxy]phenol]
CONJ. DIENE (conjugated diene lag phase) (oxidation of lipids; diet 0.1%): 168 min | food (grams eaten per day per rabbit), percent of control ([1]; diet 0.4%, 7 days): 100% | food (grams eaten per day per rabbit), percent of control ([1]; diet 0.6%, 14 days): 80% | body wt., percent of control ([1]; diet 0.4%, 7 days): 100% | lw/bw (liver weight/body weight), percent of control ([1]; diet 0.4%, 7 days): 89% | body wt., percent of control ([1]; diet 0.6%, 14 days): 95% | lw/bw (liver weight/body weight), percent of control ([1]; diet 0.6%, 14 days): 96% | Liver Parent = parent compound concentration [2, 3]: 0 µg/g | Liver Parent = parent compound concentration ([2]; rabbit liver, diet 0.6%, 14 days): 0 µg/g | Serum Parent = parent compound concentration [2, 4]: 0 µg/mL | Serum Parent = parent compound concentration ([2]; rabbit serum, diet 0.6%, 14 days): 0 µg/mL

CN(C)c1ccc([Si](C)(C)COc2cc(C(C)(C)C)c(O)c(C(C)(C)C)c2)cc1 [MDL 104,556, 2,6-Di-t-butyl-4-[(4-N,N-dimethylaminophenyldimethylsilyl)methyloxy]phenol]
CONJ. DIENE (conjugated diene lag phase) (oxidation of lipids; diet 0.1%): 200 min | food (grams eaten per day per rabbit), percent of control ([1]; diet 0.4%, 7 days): 100% | body wt., percent of control ([1]; diet 0.4%, 7 days): 97% | lw/bw (liver weight/body weight), percent of control ([1]; diet 0.4%, 7 days): 96% | concentration at 168 h [2, 5]: 7900 ng/g | concentration at 168 h [2, 6]: 4900 ng/mL

CC(C)(C)c1cc(OC[Si](C)(c2ccccc2)c2ccccc2)cc(C(C)(C)C)c1O [MDL 104,599, 2,6-Di-t-butyl-4-[(diphenylmethylsilyl)methloxy]phenol]
food (grams eaten per day per rabbit), percent of control ([1]; diet 0.4%, 7 days): 98% | body wt., percent of control ([1]; diet 0.4%, 7 days): 99% | lw/bw (liver weight/body weight), percent of control ([1]; diet 0.4%, 7 days): 86% | concentration at 168 h [2, 5]: 47200 ng/g | concentration at 168 h [2, 6]: 14800 ng/mL

CC(C)(C)c1cc(OC[Si](C)(C)c2ccccc2)c(C(C)(C)C)cc1O [MDL 104,962, 2,5-Di-t-butyl-4-[(dimethylphenylsilyl)methyloxy]phenol]
CONJ. DIENE (conjugated diene lag phase) (oxidation of lipids; diet 0.3%): 320 min | food (grams eaten per day per rabbit), percent of control ([1]; diet 0.4%, 7 days): 69% | body wt., percent of control ([1]; diet 0.4%, 7 days): 97% | lw/bw (liver weight/body weight), percent of control ([1]; diet 0.4%, 7 days): 71% | concentration at 168 h [2, 5]: 3600 ng/g | concentration at 168 h [2, 6]: 3800 ng/mL

CC(=O)Oc1ccc(OC[Si](C)(C)c2ccccc2)cc1C(C)(C)C [MDL 105,443, 2-t-Butyl-4-[(dimethylphenylsilyl)methyloxy]phenol acetic acid ester]
CONJ. DIENE (conjugated diene lag phase) (oxidation of lipids; diet 0.1%): 151 min | food (grams eaten per day per rabbit), percent of control ([1]; diet 0.4%, 7 days): 100% | body wt., percent of control ([1]; diet 0.4%, 7 days): 101% | lw/bw (liver weight/body weight), percent of control ([1]; diet 0.4%, 7 days): 90% | Liver Parent = parent compound concentration [2, 3]: 0 µg/g | Serum Parent = parent compound concentration [2, 4]: 0 µg/mL

CC(C)(C)c1cc(OC[Si](C)(C)c2ccc(C(F)(F)F)cc2)cc(C(C)(C)C)c1O [MDL 105,975, 2,6-Di-t-butyl-4-[(dimethyl-4-trifluoromethylphenylsilyl)methyloxy]phenol]
food (grams eaten per day per rabbit), percent of control ([1]; diet 0.4%, 7 days): 100% | body wt., percent of control ([1]; diet 0.4%, 7 days): 101% | lw/bw (liver weight/body weight), percent of control ([1]; diet 0.4%, 7 days): 108% | concentration at 168 h [2, 5]: 54600 ng/g | concentration at 168 h [2, 6]: 13800 ng/mL

COc1ccc([Si](C)(C)COc2ccc(O)c(C(C)(C)C)c2)cc1 [MDL 106,834, 2-t-Butyl-4-[(dimethyl-p-methoxylphenylsilyl)methyloxy]phenol]
CONJ. DIENE (conjugated diene lag phase) (oxidation of lipids; diet 0.3%): 492 min | food (grams eaten per day per rabbit), percent of control ([1]; diet 0.4%, 7 days): 99% | body wt., percent of control ([1]; diet 0.4%, 7 days): 99% | lw/bw (liver weight/body weight), percent of control ([1]; diet 0.4%, 7 days): 94% | concentration at 168 h [2, 5]: 9100 ng/g | concentration at 168 h [2, 6]: 2900 ng/mL
